Experimental data: patent US6160166A, “Phosphonated agents and their antiangiogenic and antitumorigenic use” (priority 1999, dated 2000)
pIC50: −log10 of the molar value.

What was measured:
[1] = cited from earlier work
MMP-2 = MMP-2 activity by zymography, human microvascular endothelial cells; type: cell-based; conditions: for inhibition of MMP-2 activity: human microvascular endothelial cells, zymography; for inhibition of bFGF-induced increase in MMP-2 activity: with bFGF
Source text: Matrix metalloproteinases are an important group of zinc enzymes responsible for the degradation of the extracellular matrix components, such as collagen and proteoglycans. Currently, 16 family members have been identified. MMP family member differ from each other structurally by the presence or absence of domains that contribute to activities such as substrate specificity, inhibitor binding, matrix binding and cell surface localization (Powell and Matrisian, 1996). To determine if the phosphonic acid agents were effective inhibitors of the MMP's of endothelial cells, cells were incubated in the presence of the different agents for 48 hours. Tissue samples were taken and subjected to zymography. Tissue samples were placed in glass homogenizers in a three fold weight/volume of lysis buffer consisting of 50 mM Tris-HCL, pH=7.4, with 200 mM sodium chloride and 0.1% Triton X-100. The samples were homogenized and centrifuged at 1500 g for 20 min. The supernatant was immediately analyzed by zymography. Protein content of each sample was determined by a modified Lowry method.
MMP enzyme activity was detected using polyacrylamide gel eltrophoresis zymography. SDS-polyacrylamide gel electrophoresis (PAGE) was performed using 8% acrylamide gels containing 0.1% gelatin. The volume of test samples loaded was 15 μl. Electrophoresis was run at 4° C. at a constant voltage (100 volts). After electrophoresis, gels were incubated in Triton X-100 (2.5%) for 30 minutes to eliminate SDS, prior to being incubated overnight in 50 mM Tris HCL, pH7.5, containing 10 mM CaCl2 at 37° C. The gels were stained in 0.25% (W/v) Coomassie Brilliant Blue and destained in methanol:acetic acid:water (50:40:10). The clear zones in these gels indicates the presence of proteins with gelatinolytic activity. This method allows for identification of pro-metalloproteinases.Migration position of proteins and with standard molecular weight and supernatant from HT 1080 cells that express MMP-2 and MMP-9 were used as controls.

[2] = system: chick chorioallantoic membrane (CAM); test: Chick egg chorioallantoic membrane (CAM) assay, 6-day, growing vessels: inhibition of angiogenesis; type: in vivo; conditions: for antiangiogenic activity relative to suramin: CAM assay / inhibition of angiogenesis, versus suramin; for inhibition of angiogenesis in the 6-day CAM, in words: rapidly growing vessels; for inhibition in vivo at 70 nmol: Gallus gallus, Tables 1 and 2, dose not given, Em = number of embryos, read-out: % Ih (Inhibition)
Source text: The purpose of this experiment was to test the ability of the phosphonic acid agents described above to inhibit angiogenesis. […]
(§1) Comparison of the inhibition of angiogenesis by 70 nmol of
(§2) suramin or a equimolar amount of a phosphonic acid agents in the
(§3) 6-day and 11-day chick egg chorioallantoic (CAM) assay.

[3] = system: human dermal microvascular and porcine pulmonary artery endothelial cells; test: bFGF-stimulated and non-stimulated endothelial cell growth (total protein, total DNA); type: cell-based; conditions: 25 μM
Source text: Suramin is a highly charged molecule with six sulfonate groups that are ionized at physiologic pH.

[4] = system: chick chorioallantoic membrane (CAM); test: Chick egg chorioallantoic membrane (CAM) assay, 11-day, established vessels; type: in vivo; conditions: for 11-day CAM % Inhibition: 70 nmol or equimolar amount; for inhibitory activity in the 11-day CAM, in words: established vessels
Protocol: According to Ausprunk et al. (1974), capillary angiogenesis in the CAM is completed by day 11. Measurements of intercapillary distances are also consistent with the cessation of capillary growth after day 10. […] The implants were prepared as previously described by Gagliardi et al. (1992), implanted on day 11 and read on day 13.
as §1, §2, §3

[5] = system: different cancer cell lines; test: MTT cell proliferation, different cancer cell lines; type: cell-based, human; conditions: cancer cell lines in vitro
[6] = system: human dermal Microvascular endothelial cells; test: Inhibition of bFGF-stimulated growth of human microvascular endothelial cells; type: cell-based; conditions: for pIC50: Homo sapiens, Endothelial cell, bFGF-stimulated, estimated from dose response curve
Protocol: Inhibition of cell growth was evaluated by measuring total protein and total DNA and the IC50 was estimated for each dose response curve.

Structure (SMILES) | antiangiogenic activity relative to suramin [2] | effect on bFGF stimulation of endothelial cell growth [3] | effect on total protein content versus unstimulated control [3] | inhibition in vivo at 70 nmol [2] [%] | further results
CN1CCCC1=O [N-methyl-2-pyrrolidone] | – | – | – | – | toxicity in Ames type assays and chronic exposure studies ([1]; Wells et al.): have not revealed any significant toxicity; irritation or sensitization potential ([1]; animal and human experiments): very little irritation or sensitization potential
O=C(Nc1cccc(C(=O)Nc2cccc(C(=O)Nc3cccc(P(=O)(O)O)c3)c2)c1)Nc1cccc(C(=O)Nc2cccc(C(=O)Nc3cccc(P(=O)(O)O)c3)c2)c1 [NF 050] | 2 to 4 times | inhibited the stimulation of endothelial cell growth by bFGF | significantly reduced total protein content far below the unstimulated control endothelial cells | – | inhibition of MMP-2 activity (MMP-2): potent inhibitors of MMP-2 activity; inhibition of bFGF-induced increase in MMP-2 activity (MMP-2): inhibited the increase in MMP-2 activity induced by bFGF
O=C(Nc1cccc(C(=O)Nc2ccc(P(=O)(O)O)cc2)c1)Nc1cccc(C(=O)Nc2ccc(P(=O)(O)O)cc2)c1 [NF 067] | 2 to 4 times | inhibited the stimulation of endothelial cell growth by bFGF | significantly reduced total protein content far below the unstimulated control endothelial cells | 62 | inhibition of angiogenesis in the 6-day CAM, in words [2]: very potent inhibitors of angiogenesis; ID50, dose that produces 50% inhibition of angiogenesis ([2]; CAM assay): 32 nmol; 11-day CAM % Inhibition [4]: 0%; inhibitory activity in the 11-day CAM, in words [4]: no significant inhibitory activity; antiproliferative activity, in words [5]: very low antiproliferative activity; pIC50 [6]: 4.71; potency relative to suramin, inhibition of endothelial cell growth ([6]; versus suramin, in vitro): 20 times
O=C(Nc1cccc(C(=O)Nc2cccc(P(=O)(O)O)c2)c1)Nc1cccc(C(=O)Nc2cccc(P(=O)(O)O)c2)c1 [NF 068] | – | – | – | 0 | antiangiogenic activity relative to suramin or between groups, in words ([2]; CAM assay): does not show any antiangiogenic activity
O=C(Nc1ccc(C(=O)Nc2cccc(P(=O)(O)O)c2)cc1)Nc1ccc(C(=O)Nc2cccc(P(=O)(O)O)c2)cc1 [NF 069] | 4-8 times | inhibited the stimulation of endothelial cell growth by bFGF | significantly reduced total protein content far below the unstimulated control endothelial cells | 66 | inhibition of angiogenesis in the 6-day CAM, in words [2]: very potent inhibitors of angiogenesis; ID50, dose that produces 50% inhibition of angiogenesis ([2]; CAM assay): 9 nmol; 11-day CAM % Inhibition [4]: 0%; inhibitory activity in the 11-day CAM, in words [4]: no significant inhibitory activity; pIC50 [6]: 4.12
O=C(Nc1cccc(P(=O)(O)O)c1)Nc1cccc(P(=O)(O)O)c1 [NF 158] | – | – | – | 0 | –
O=C(Nc1ccc(P(=O)(O)O)cc1)Nc1ccc(P(=O)(O)O)cc1 [NF 161] | 2 to 4 times | inhibited the stimulation of endothelial cell growth by bFGF | significantly reduced total protein content far below the unstimulated control endothelial cells | 53 | –
O=C(Nc1ccc(P(=O)(O)O)cc1)c1ccc(NC(=S)Nc2ccc(C(=O)Nc3ccc(P(=O)(O)O)cc3)cc2)cc1 [NF 162] | – | – | – | – | inhibition of MMP-2 activity (MMP-2): potent inhibitors of MMP-2 activity; inhibition of bFGF-induced increase in MMP-2 activity (MMP-2): inhibited the increase in MMP-2 activity induced by bFGF
O=C(Nc1ccc(P(=O)(O)O)cc1)c1cc(NC(=O)c2cccc([N+](=O)[O-])c2)cc(C(=O)Nc2ccc(P(=O)(O)O)cc2)c1 [NF 167] | 2 to 4 times | inhibited the stimulation of endothelial cell growth by bFGF | significantly reduced total protein content far below the unstimulated control endothelial cells | – | –
O=C(Nc1ccc(OC(=O)P(=O)(O)O)cc1)Nc1ccc(OC(=O)P(=O)(O)O)cc1 [NF 392] | – | – | – | 6 | –
O=C(Nc1cccc(OC(=O)P(=O)(O)O)c1)Nc1cccc(OC(=O)P(=O)(O)O)c1 [NF 426] | – | – | – | 39 | –
O=C(Nc1ccc(NC(=O)P(=O)(O)O)cc1)Nc1ccc(NC(=O)P(=O)(O)O)cc1 [NF 428] | 2 to 4 times | inhibited the stimulation of endothelial cell growth by bFGF | significantly reduced total protein content far below the unstimulated control endothelial cells | – | –
O=C(Nc1ccccc1OC(=O)P(=O)(O)O)Nc1ccccc1OC(=O)P(=O)(O)O [NF 473] | – | – | – | 21 | –
Cc1cc(NC(=O)Nc2ccc(OC(=O)P(=O)(O)O)c(C)c2)ccc1OC(=O)P(=O)(O)O [NF 474] | – | – | – | 12 | –
O=C(Nc1ccc(C(=O)Nc2ccc(P(=O)(O)O)cc2)cc1)Nc1ccc(C(=O)Nc2ccc(P(=O)(O)O)cc2)cc1 [NF 681] | 4-8 times | inhibited the stimulation of endothelial cell growth by bFGF | significantly reduced total protein content far below the unstimulated control endothelial cells | 100 | inhibition of MMP-2 activity (MMP-2): potent inhibitors of MMP-2 activity; inhibition of bFGF-induced increase in MMP-2 activity (MMP-2): inhibited the increase in MMP-2 activity induced by bFGF; inhibition of angiogenesis in the 6-day CAM, in words [2]: very potent inhibitors of angiogenesis; ID50, dose that produces 50% inhibition of angiogenesis ([2]; CAM assay): 2 nmol; 11-day CAM % Inhibition [4]: 0%; inhibitory activity in the 11-day CAM, in words [4]: no significant inhibitory activity; pIC50 [6]: 5.82
